Laboratory results from PubChem BioAssay AID248 (DTP/NCI, 2004).
Values joined by “and” are separate entries in the source; they are usually repeats but may differ in a detail not shown here. Equal entries are not always repeated. Inconclusive results and toxic doses are left out.

Tested on: L1210 leukemia ip in BDF1 mice, survival T/C
Experiment: NCI In Vivo Anticancer Drug Screen. Data for tumor model L1210 Leukemia (intraperitoneal) in B6D2F1 (BDF1) mice
Conditions: endpoint: mean survival time, higher = longer survival
Summary of the method: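 Read-out is survival time, reported as the treated-group measurement over the vehicle-control measurement.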

[1] = dose: 100.0 mg/kg/injection, schedule: Q01DX001 (ip), vehicle: saline with Tween-80
[2] = dose: 100.0 mg/kg/injection, schedule: Q01DX009 (ip), vehicle: saline with Tween-80
[3] = dose: 100.0 mg/kg/injection, schedule: Q04DX003 (ip), vehicle: saline with Tween-80
[4] = dose: 200.0 mg/kg/injection, schedule: Q01DX001 (ip), vehicle: saline with Tween-80
[5] = dose: 200.0 mg/kg/injection, schedule: Q01DX009 (ip), vehicle: saline with Tween-80
[6] = dose: 200.0 mg/kg/injection, schedule: Q01DX009 (ip), vehicle: saline
[7] = dose: 200.0 mg/kg/injection, schedule: Q04DX003 (ip), vehicle: saline with Tween-80
[8] = dose: 400.0 mg/kg/injection, schedule: Q01DX001 (ip), vehicle: saline with Tween-80
[9] = dose: 25.0 mg/kg/injection, schedule: Q01DX009 (ip), vehicle: Klucel (hydroxypropylcellulose) (HPC)
[10] = dose: 100.0 mg/kg/injection, schedule: Q01DX001 (ip), vehicle: Klucel (hydroxypropylcellulose) (HPC)
[11] = dose: 200.0 mg/kg/injection, schedule: Q01DX001 (ip), vehicle: Klucel (hydroxypropylcellulose) (HPC)
[12] = dose: 100.0 mg/kg/injection, schedule: Q01DX009 (ip), vehicle: saline
[13] = dose: 100.0 mg/kg/injection, schedule: Q01DX001 (ip), vehicle: saline
[14] = dose: 200.0 mg/kg/injection, schedule: Q01DX001 (ip), vehicle: saline
[15] = dose: 400.0 mg/kg/injection, schedule: Q01DX001 (ip), vehicle: saline
[16] = dose: 100.0 mg/kg/injection, schedule: Q04DX003 (ip), vehicle: Klucel (hydroxypropylcellulose) (HPC)
[17] = dose: 200.0 mg/kg/injection, schedule: Q04DX003 (ip), vehicle: Klucel (hydroxypropylcellulose) (HPC)
[18] = dose: 400.0 mg/kg/injection, schedule: Q04DX003 (ip), vehicle: Klucel (hydroxypropylcellulose) (HPC)

CN(C)N=Nc1c(Cl)cc(Cl)cc1C(N)=O
T/C [1]: 108 % of control | T/C [2]: 111 % of control | T/C [3]: 106 % of control | T/C (dose: 133.0 mg/kg/injection, schedule: Q01DX009 (ip), vehicle: saline with Tween-80): 123 % of control | T/C [4]: 111 % of control | T/C [5]: 165 % of control | T/C [6]: 115 % of control | T/C [7]: 110 % of control | T/C (dose: 300.0 mg/kg/injection, schedule: Q01DX009 (ip), vehicle: saline with Tween-80): 150 % of control | T/C (dose: 300.0 mg/kg/injection, schedule: Q01DX009 (ip), vehicle: saline): 100 % of control | T/C [8]: 117 % of control

N#CSc1ccc(S(N)(=O)=O)cc1
T/C (dose: 6.25 mg/kg/injection, schedule: Q01DX009 (ip), vehicle: Klucel (hydroxypropylcellulose) (HPC)): 94 % of control | T/C (dose: 12.5 mg/kg/injection, schedule: Q01DX009 (ip), vehicle: Klucel (hydroxypropylcellulose) (HPC)): 92 % of control | T/C (dose: 12.5 mg/kg/injection, schedule: Q04DX003 (ip), vehicle: Klucel (hydroxypropylcellulose) (HPC)): 100 % of control | T/C [9]: 106 % of control | T/C (dose: 25.0 mg/kg/injection, schedule: Q04DX003 (ip), vehicle: Klucel (hydroxypropylcellulose) (HPC)): 105 % of control

NC(Cc1ncc[nH]1)C(=O)O (centres undefined)
T/C (dose: 100.0 mg/kg/injection, schedule: Q04DX002 (ip), vehicle: other): 104 % of control | T/C (dose: 200.0 mg/kg/injection, schedule: Q04DX002 (ip), vehicle: other): 96 % of control | T/C (dose: 400.0 mg/kg/injection, schedule: Q04DX002 (ip), vehicle: other): 119 % of control

NC1=NCN(c2ccc(Oc3ccc(S(=O)(=O)F)cc3)cc2)C(N)=N1
T/C [10]: 93 % of control | T/C [11]: 101 % of control | T/C (dose: 400.0 mg/kg/injection, schedule: Q01DX001 (ip), vehicle: Klucel (hydroxypropylcellulose) (HPC)): 104 % of control

Cc1ccccc1N=Nc1c(O)n(-c2ccc(Cl)cc2)c(=S)n(-c2ccccc2)c1=O
T/C (dose: 75.0 mg/kg/injection, schedule: Q04DX003 (ip), vehicle: Klucel (hydroxypropylcellulose) (HPC)): 100 % of control | T/C (dose: 150.0 mg/kg/injection, schedule: Q04DX003 (ip), vehicle: Klucel (hydroxypropylcellulose) (HPC)): 96 % of control | T/C (dose: 300.0 mg/kg/injection, schedule: Q04DX003 (ip), vehicle: Klucel (hydroxypropylcellulose) (HPC)): 107 % of control

Cn1cnc2c(SCc3ccccc3)ncnc21
T/C (dose: 75.0 mg/kg/injection, schedule: Q01DX009 (ip), vehicle: saline with Tween-80): 97 % of control | T/C [2]: 104 % of control | T/C [5]: 117 % of control

CC(=O)Oc1ccc(Nc2c3ccccc3nc3ccccc23)cc1
T/C (dose: 25.0 mg/kg/injection, schedule: Q04DX002 (ip), vehicle: saline with Tween-80): 106 % of control | T/C (dose: 44.0 mg/kg/injection, schedule: Q04DX003 (ip), vehicle: saline with Tween-80): 116 % of control | T/C (dose: 66.0 mg/kg/injection, schedule: Q04DX003 (ip), vehicle: saline with Tween-80): 119 % of control | T/C (dose: 100.0 mg/kg/injection, schedule: Q04DX002 (ip), vehicle: saline with Tween-80): 181 % of control | T/C [3]: 123 % of control | T/C (dose: 150.0 mg/kg/injection, schedule: Q04DX003 (ip), vehicle: saline with Tween-80): 116 % of control

CCOC1=C(Br)C=CN(S(=O)(=O)c2ccc(C)cc2)c2ccccc21
T/C [12]: 97 % of control | T/C [6]: 94 % of control | T/C (dose: 400.0 mg/kg/injection, schedule: Q01DX009 (ip), vehicle: saline): 93 % of control

O=c1[nH]cc(COCC(F)(F)C(F)(F)C(F)(F)F)c(=O)[nH]1
T/C (dose: 50.0 mg/kg/injection, schedule: Q01DX005 (ip), vehicle: water): 104 % of control | T/C (dose: 100.0 mg/kg/injection, schedule: Q01DX005 (ip), vehicle: water): 93 % of control | T/C (dose: 200.0 mg/kg/injection, schedule: Q01DX005 (ip), vehicle: water): 95 % of control | T/C (dose: 400.0 mg/kg/injection, schedule: Q01DX005 (ip), vehicle: water): 87 % of control

O=C(/C=C\c1ccc(/C=C\C(=O)c2ccccc2O)cc1)c1ccccc1O
T/C (dose: 50.0 mg/kg/injection, schedule: Q01DX001 (ip), vehicle: saline): 97 % of control | T/C [13]: 97 % of control | T/C [14]: 97 % of control | T/C [15]: 103 % of control

O=S1(=O)CCCC1C(O)c1ccccc1 (centres undefined)
T/C [16]: 94 % of control and 98 % of control | T/C [17]: 105 % of control and 102 % of control | T/C [18]: 105 % of control and 94 % of control

O=[N+]([O-])c1ccccc1C1=Cc2cccn2-c2ccccc2S1(=O)=O
T/C [16]: 95 % of control | T/C [17]: 100 % of control

O=C(O)c1cccc(Nc2ccccc2C(=O)O)c1
T/C (dose: 100.0 mg/kg/injection, schedule: Q01DX001 (ip), vehicle: carboxymethylcellulose (CMC)): 90 % of control | T/C (dose: 200.0 mg/kg/injection, schedule: Q01DX001 (ip), vehicle: carboxymethylcellulose (CMC)): 92 % of control

CC1N=C1c1ccccc1 (centres undefined)
T/C (dose: 100.0 mg/kg/injection, schedule: Q04DX002 (ip), vehicle: saline): 102 % of control | T/C (dose: 200.0 mg/kg/injection, schedule: Q04DX002 (ip), vehicle: saline): 115 % of control | T/C (dose: 400.0 mg/kg/injection, schedule: Q04DX002 (ip), vehicle: saline): 105 % of control

Cn1c2c(c(=O)n(C)c1=O)C(C(=O)O)CC(=O)N2 (centres undefined)
T/C (dose: 100.0 mg/kg/injection, schedule: Q01DX009 (ip), vehicle: Klucel (hydroxypropylcellulose) (HPC)): 103 % of control | T/C [16]: 103 % of control | T/C (dose: 200.0 mg/kg/injection, schedule: Q01DX009 (ip), vehicle: Klucel (hydroxypropylcellulose) (HPC)): 102 % of control | T/C [17]: 102 % of control | T/C (dose: 400.0 mg/kg/injection, schedule: Q01DX009 (ip), vehicle: Klucel (hydroxypropylcellulose) (HPC)): 100 % of control | T/C [18]: 110 % of control

NC(C=O)C(O)C(O)C(O)CO (centres undefined)
T/C (dose: 50.0 mg/kg/injection, schedule: Q01DX009 (ip), vehicle: saline): 94 % of control | T/C [13]: 104 % of control and 93 % of control | T/C [12]: 94 % of control | T/C (dose: 125.0 mg/kg/injection, schedule: Q01DX Z (ip), vehicle: carboxymethylcellulose (CMC)): 100 % of control | T/C [14]: 105 % of control and 102 % of control | T/C [6]: 94 % of control | T/C (dose: 250.0 mg/kg/injection, schedule: Q01DX Z (ip), vehicle: carboxymethylcellulose (CMC)): 94 % of control | T/C [15]: 102 % of control and 96 % of control | T/C (dose: 500.0 mg/kg/injection, schedule: Q01DX Z (ip), vehicle: carboxymethylcellulose (CMC)): 96 % of control | T/C (dose: 750.0 mg/kg/injection, schedule: Q01DX009 (ip), vehicle: saline): 100 % of control | T/C (dose: 1000.0 mg/kg/injection, schedule: Q01DX Z (ip), vehicle: carboxymethylcellulose (CMC)): 95 % of control | T/C (dose: 1500.0 mg/kg/injection, schedule: Q01DX009 (ip), vehicle: saline): 104 % of control | T/C (dose: 3000.0 mg/kg/injection, schedule: Q01DX009 (ip), vehicle: saline): 104 % of control and 107 % of control | T/C (dose: 5000.0 mg/kg/injection, schedule: Q01DX009 (ip), vehicle: saline): 98 % of control

Cc1cccc(Cl)c1NC(=O)Cn1cccc1
T/C [9]: 95 % of control | T/C (dose: 50.0 mg/kg/injection, schedule: Q01DX009 (ip), vehicle: Klucel (hydroxypropylcellulose) (HPC)): 95 % of control | T/C (dose: 75.0 mg/kg/injection, schedule: Q01DX009 (ip), vehicle: Klucel (hydroxypropylcellulose) (HPC)): 94 % of control | T/C [16]: 100 % of control | T/C [17]: 93 % of control

CC1=CC(=O)N(CCl)C1=O
T/C [3]: 102 % of control | T/C [7]: 94 % of control

Cc1ccc(-n2c(O)c(N=Nc3ccccc3C)c(=O)n(-c3ccc(Cl)cc3)c2=S)cc1
T/C (dose: 50.0 mg/kg/injection, schedule: Q01DX001 (ip), vehicle: Klucel (hydroxypropylcellulose) (HPC)): 104 % of control | T/C [10]: 102 % of control | T/C [11]: 102 % of control

S=c1cc[nH]c2n[nH]nc12
T/C [1]: 101 % of control | T/C [3]: 104 % of control | T/C [4]: 101 % of control | T/C [7]: 101 % of control | T/C [8]: 103 % of control | T/C (dose: 400.0 mg/kg/injection, schedule: Q04DX003 (ip), vehicle: saline with Tween-80): 98 % of control

CCOCCC(=O)CC(=O)OC
T/C (dose: 50.0 mg/kg/injection, schedule: Q01DX009 (ip), vehicle: saline with Tween-80): 96 % of control | T/C [2]: 100 % of control | T/C [5]: 96 % of control
